Laboratory results published in US20040127718A1, “Substituted imidazoles” (Novo Nordisk A/S, priority 2001, published 2004).

Legend:
H3 receptor [1] = target: T1, H3 receptor (Homo sapiens, UniProt Q9Y5N1); test: Binding Assay III: [125I]-iodoproxifan binding to membranes of h-H3-HEK 293 clones; settings: 30 pM [125I]-iodoproxifan, h-H3-HEK 293 membranes
T1 construct: expressed in transfected cells; pcDNA3)
Description: The H3 receptor was cloned by PCR and subcloned into the pcDNA3 expression vector. Cells stably expressing the H3 receptor were generated by transfecting the H3-expression vectors into HEK 293 cells and using G418 to select for H3 clones. The h-H3-HEK 293 clones were cultured in DMEM with glutamax, 10% FCS, 1% Pen/Strep and 1 mg/ml G 418 at 37° C. and 5% CO2. Before harvesting, the confluent cells were rinsed with PBS and incubated with Versene for approximately 5 minutes. The cells were flushed with PBS and DMEM and the cellsuspension collected in a tube and centrifuged for 5-10 min at 1500 rpm in a Heraeus Sepatech Megafuge 1.0. The pellet was resuspended in 10-20 vol. Hepes buffer (20 mM Hepes, 5 mM MgCl2, pH 7.1 (KOH)) and homogenized for 10-20 seconds using a Ultra-Turrax homogenizer. The homogenate was centrifuged for 30 min at 23 000 g. The pellet was resuspended in 5-10 ml Hepes buffer, homogenized 5-10 seconds with the Ultra-Turrax and centrifuged for 10 min at 23 000 g. Following this centrifugation step, the membrane pellet was resuspended in 2-4 ml Hepes buffer, homogenized with a syringe or teflonhomogenizer, and the protein concentration determined. The membranes were diluted to a protein concentration of 1-5 mg/ml in Hepes buffer, aliquoted and kept at −80° C. until use. […]

H3 receptor [2] = target: T1, H3 receptor; test: Functional Assay: cAMP accumulation (Flash Plate) in HEK293 cells expressing the human H3 receptors; format: cell-based; settings: cAMP accumulation stimulated with isoprenaline, h-H3-HEK 293 cells
Description: The ability of the compounds to interact with the histamine H3 receptor as agonists, inverse agonists and/or competitive antagonists, was determined by an in vitro functional assay utilizing membranes from HEK293 cell expressing the human H3 receptors.
The H3 receptor was cloned by PCR and subcloned into the pcDNA3 expression vector. Cells stably expressing the H3 receptor were generated by transfecting the H3-expression vectors into HEK 293 cells and using G418 to select for H3 clones. The h-H3-HEK 293 clones were cultured in DMEM with glutamax, 10% FCS, 1% Pen/Strep and 1 mg/ml G 418 at 37° C. and 5% CO2.
The H3 receptor expressing cells were washed once with phosphate buffered saline (PBS) and harvested using versene (GIBCO-BRL). PBS was added and the cells were centrifuged for 5 min at 188 g. The cell pellet was resuspended in stimulation buffer to a concentration of 1×10^6 cells/ml. cAMP accumulation was measured using the Flash Plate® cAMP assay (NEN™ Life Science Products). […] The plates were then sealed with plastic, shaken for 30 minutes, allowed to stand overnight, and finally the radioactivity was counted in the Cobra II auto gamma topcounter. EC50 values were calculated by non-linear regression analysis of dose response curves (6 points minimum) using GraphPad Prism. Kb values were calculated by Schild plot analysis.

T1 sequence (Q9Y5N1 whole entry): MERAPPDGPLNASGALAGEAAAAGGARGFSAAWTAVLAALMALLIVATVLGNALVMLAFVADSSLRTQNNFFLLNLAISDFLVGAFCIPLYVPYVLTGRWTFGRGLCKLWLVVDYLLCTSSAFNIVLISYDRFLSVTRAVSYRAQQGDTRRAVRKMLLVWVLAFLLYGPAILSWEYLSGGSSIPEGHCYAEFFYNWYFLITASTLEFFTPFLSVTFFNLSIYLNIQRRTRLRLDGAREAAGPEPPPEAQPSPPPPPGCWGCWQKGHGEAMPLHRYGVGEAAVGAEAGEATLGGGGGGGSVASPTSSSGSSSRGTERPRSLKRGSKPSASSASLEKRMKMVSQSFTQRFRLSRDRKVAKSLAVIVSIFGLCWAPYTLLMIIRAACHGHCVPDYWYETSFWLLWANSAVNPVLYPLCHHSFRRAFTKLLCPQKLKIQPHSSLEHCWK

IC50 (H3 receptor [1]) | EC50 (H3 receptor [2]) | Structure (SMILES)
< 100 nM | < 100 nM | Cc1[nH]cnc1CCCCOc1ccc2ccccc2c1 [Example 15/5, 5-Methyl-4-[4-(naphthalen-2-yloxy)-butyl]-1H-imidazole]
< 50 nM | < 50 nM | Cc1[nH]cnc1CCCOCc1cccc(I)c1 [Example 16/14, 4-[3-(3-Iodo-benzyloxy)-propyl]-5-methyl-1H-imidazole]
